The term inhibition denotes the share of the control response that was lost under treatment.

Where two headings read alike, the source gives them in different places.

For 24 compounds, inhibition results are on record in patent US20130252930A1 (BIOMARIN PHARMACEUTICAL INC., priority 2010, published 2013).

The target of this assay is T1, CYP17 (human testicular microsome) (Homo sapiens, UniProt P05093).
T1 construct: using microsomal fraction from human testis (Celsis Cat #S00110) as the enzyme source; tissue Celsis S00110; host or cells: human testis microsomal fraction
T1 sequence (P05093 1-508): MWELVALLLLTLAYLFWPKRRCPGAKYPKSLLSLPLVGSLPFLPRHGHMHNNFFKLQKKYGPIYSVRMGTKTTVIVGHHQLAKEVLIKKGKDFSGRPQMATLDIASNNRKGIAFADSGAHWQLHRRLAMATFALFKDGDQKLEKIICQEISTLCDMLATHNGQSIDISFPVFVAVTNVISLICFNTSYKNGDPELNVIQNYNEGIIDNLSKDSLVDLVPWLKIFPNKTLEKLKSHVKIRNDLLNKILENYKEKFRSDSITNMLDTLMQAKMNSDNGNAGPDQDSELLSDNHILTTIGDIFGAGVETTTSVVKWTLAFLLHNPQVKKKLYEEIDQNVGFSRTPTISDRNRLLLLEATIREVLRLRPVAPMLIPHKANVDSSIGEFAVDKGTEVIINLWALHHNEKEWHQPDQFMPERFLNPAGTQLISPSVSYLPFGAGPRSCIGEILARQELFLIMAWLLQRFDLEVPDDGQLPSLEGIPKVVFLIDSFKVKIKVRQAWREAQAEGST
The assay can be described thus: CYP17 enzymatic assay (% inhibition at 1 nM) (Biological Example 12). Type of assay: biochemical. Particulars: compound at 1 nM.

Where [1] appears, read: read-out: Biological Example No. 12: CYP17 enzymatic assay % inhibition at 1 nM.
Setting [2] is: read-out: CYP17 enzymatic assay % inhibition at 1 nM (Biological Example No. 12).

`CC1C[C@@H]2[C@H](CC[C@]3(C)C(c4cccnc4)=CC[C@@H]23)[C@@]2(C)CCC(C)(O)C=C12` (stereo partly drawn) [Compound 423, (10R,13S)-3,6,10,13-tetramethyl-17-(pyridin-3-yl)-2,3,6,7,8,9,10,11,12,13,14,15-dodecahydro-1H-cyclopenta[a]phenanthren-3-ol]: the inhibition at 0.001 µM under setting [1] is 10 to 50%.
`CC1CC2C(CC[C@]3(C)C(c4cccnc4)=CCC23)[C@@]2(C)CC[C@@](C)(O)CC12` (stereo partly drawn) [Compound 424, (3R,10S,13S)-3,6,10,13-tetramethyl-17-(pyridin-3-yl)-2,3,4,5,6,7,8,9,10,11,12,13,14,15-tetradecahydro-1H-cyclopenta[a]phenanthren-3-ol]: the inhibition at 0.001 µM under setting [1] lay within 10 to 50%.
On to `CC1CC2C(CC[C@]3(C)C(c4cccnc4)=CCC23)[C@@]2(C)CC[C@](C)(O)CC12` (stereo partly drawn) [Compound 425, (3S,10S,13S)-3,6,10,13-tetramethyl-17-(pyridin-3-yl)-2,3,4,5,6,7,8,9,10,11,12,13,14,15-tetradecahydro-1H-cyclopenta[a]phenanthren-3-ol], for which, under setting [1], the inhibition at 0.001 µM is 10 to 50%.
Consider `CN1C(=O)CC[C@@]2(C)C1=CCC1C2CC[C@]2(C)C(c3cncc(C(F)F)c3)=CCC12` (stereo partly drawn) [Compound 429, (4aR,6aS)-7-(5-(difluoromethyl)pyridin-3-yl)-1,4a,6a-trimethyl-4,4a,4b,5,6,6a,9,9a,9b,10-decahydro-1H-indeno[5,4-f]quinolin-2(3H)-one], for which the inhibition at 0.001 µM under setting [1] was under 10%.
Consider `CN1C(=O)CC[C@@]2(C)C1=CC[C@@H]1[C@@H]2CC[C@]2(C)C(c3cnccc3F)=CC[C@@H]12` [Compound 430, (4aR,6aS)-7-(4-fluoropyridin-3-yl)-1,4a,6a-trimethyl-4,4a,4b,5,6,6a,9,9a,9b,10-decahydro-1H-indeno[5,4-f]quinolin-2(3H)-one], for which the inhibition at 0.001 µM under setting [1] lay in the range of 10 to 50%.
Take `C[C@]12CCC3C(CC4OC45C[C@@H](O)CC[C@]35C)C1=CC=C2c1cccnc1` (stereo partly drawn) [Compound 439, (3S,9aS,11bR)-9a,11b-dimethyl-9-(pyridin-3-yl)-1,2,3,4,5a,6,6a,9a,10,11,11a,11b-dodecahydrocyclopenta[1,2]phenanthro[8a,9-b]oxiren-3-ol]: under setting [2], the inhibition at 0.001 µM is over 50%.
Consider `C[C@]12CCC(O)(CCCO)CC1CC[C@@H]1[C@@H]2CC[C@]2(C)C(c3cccnc3)=CC[C@@H]12` (stereo partly drawn) [Compound 440, (10S,13S)-3-(3-hydroxypropyl)-10,13-dimethyl-17-(pyridin-3-yl)-2,3,4,5,6,7,8,9,10,11,12,13,14,15-tetradecahydro-1H-cyclopenta[a]phenanthren-3-ol], for which the inhibition at 0.001 µM under setting [1] is 10 to 50%.
As for `COC1CC[C@@]2(C)C(=CCC3C2CC[C@]2(C)C(c4cccnc4)=CCC32)C1` (stereo partly drawn) [Compound 453, 3-((10R,13S)-3-methoxy-10,13-dimethyl-2,3,4,7,8,9,10,11,12,13,14,15-dodecahydro-1H-cyclopenta[a]phenanthren-17-yl)pyridine], the inhibition at 0.001 µM under setting [2] was under 10%.
Regarding `COC1CC[C@@]2(C)C(=CCC3C2CC[C@]2(C)C(c4cncc(C)c4)=CCC32)C1` (stereo partly drawn) [Compound 454, 3-((10R,13S)-3-methoxy-10,13-dimethyl-2,3,4,7,8,9,10,11,12,13,14,15-dodecahydro-1H-cyclopenta[a]phenanthren-17-yl)-5-methylpyridine], the inhibition at 0.001 µM under setting [2] is under 10%.
Turning to `CCc1cncc(C2=CC[C@H]3[C@@H]4CC[C@H]5C[C@@H](OC)CC[C@]5(C)[C@H]4CC[C@]23C)c1` [Compound 455, 3-ethyl-5-((3S,5S,8R,9S,10S,13S,14S)-3-methoxy-10,13-dimethyl-2,3,4,5,6,7,8,9,10,11,12,13,14,15-tetradecahydro-1H-cyclopenta[a]phenanthren-17-yl)pyridine], the inhibition at 0.001 µM under setting [2] lay in the range of 10 to 50%.
With `COc1cncc(C2=CC[C@H]3[C@@H]4CC[C@H]5C[C@@H](OC)CC[C@]5(C)[C@H]4CC[C@]23C)c1` [Compound 456, 3-methoxy-5-((3S,5S,8R,9S,10S,13S,14S)-3-methoxy-10,13-dimethyl-2,3,4,5,6,7,8,9,10,11,12,13,14,15-tetradecahydro-1H-cyclopenta[a]phenanthren-17-yl)pyridine], the inhibition at 0.001 µM under setting [2] fell in the range of 10 to 50%.
Turning to `CCOc1cncc(C2=CC[C@H]3[C@@H]4CC[C@H]5C[C@@H](OC)CC[C@]5(C)[C@H]4CC[C@]23C)c1` [Compound 457, 3-ethoxy-5-((3S,5S,8R,9S,10S,13S,14S)-3-methoxy-10,13-dimethyl-2,3,4,5,6,7,8,9,10,11,12,13,14,15-tetradecahydro-1H-cyclopenta[a]phenanthren-17-yl)pyridine], the inhibition at 0.001 µM under setting [2] was 10 to 50%.
`CO[C@H]1CC[C@@]2(C)[C@@H](CC[C@@H]3[C@@H]2CC[C@]2(C)C(c4cnccc4C)=CC[C@@H]32)C1` [Compound 458, 3-((3S,5S,8R,9S,10S,13S,14S)-3-methoxy-10,13-dimethyl-2,3,4,5,6,7,8,9,10,11,12,13,14,15-tetradecahydro-1H-cyclopenta[a]phenanthren-17-yl)-4-methylpyridine]: the inhibition at 0.001 µM under setting [2] lay within 10 to 50%.
Take `CO[C@H]1CC[C@@]2(C)C(=CCC3C2CC[C@]2(C)C(n4ccnc4)=CCC32)C1` (stereo partly drawn) [Compound 459, 1-((3S,10R,13S)-3-methoxy-10,13-dimethyl-2,3,4,7,8,9,10,11,12,13,14,15-dodecahydro-1H-cyclopenta[a]phenanthren-17-yl)-1H-imidazole]: under setting [2], the inhibition at 0.001 µM was in the range of 10 to 50%.
For the compound `Cc1cncc(C2=CC=C3[C@@H]4CCC5CNC(=O)CC[C@]5(C)[C@H]4CC[C@]23C)c1` (stereo partly drawn) [Compound 461, (5aR,5bS,7aS,10bR)-5a,7a-dimethyl-8-(5-methylpyridin-3-yl)-1,2,5,5a,5b,6,7,7a,10b,11,12,12a-dodecahydrocyclopenta[5,6]naphtho[2,1-c]azepin-3(4H)-one], the inhibition at 0.001 µM under setting [2] lay within 10 to 50%.
Same read-out and setting: for `Cc1ccncc1C1=CC=C2C3CCC4CC(=O)NCC[C@]4(C)C3CC[C@]12C` (stereo partly drawn) [Compound 463, (5aS,7aS)-5a,7a-dimethyl-8-(4-methylpyridin-3-yl)-3,4,5,5a,5b,6,7,7a,10b,11,12,12a-dodecahydrocyclopenta[5,6]naphtho[1,2-d]azepin-2(1H)-one] the value was 10 to 50%; for `Cc1ccncc1C1=CC=C2C3CCC4CNC(=O)CC[C@]4(C)C3CC[C@]12C` (stereo partly drawn) [Compound 464, (5aR,7aS)-5a,7a-dimethyl-8-(4-methylpyridin-3-yl)-1,2,5,5a,5b,6,7,7a,10b,11,12,12a-dodecahydrocyclopenta[5,6]naphtho[2,1-c]azepin-3(4H)-one], 10 to 50%; for `CCc1ccncc1C1=CC=C2C3CCC4C[C@@H](O)CC[C@]4(C)C3CC[C@]12C` (stereo partly drawn) [Compound 465, (3S,10S,13S)-17-(4-ethylpyridin-3-yl)-10,13-dimethyl-2,3,4,5,6,7,8,9,10,11,12,13-dodecahydro-1H-cyclopenta[a]phenanthren-3-ol], under 10%.
For the compound `CC(=O)O[C@H]1CC[C@@]2(C)C(CCC3C4=CC=C(c5cnccc5C)[C@@]4(C)CCC32)C1` (stereo partly drawn) [Compound 466, (3S,10S,13S)-10,13-dimethyl-17-(4-methylpyridin-3-yl)-2,3,4,5,6,7,8,9,10,11,12,13-dodecahydro-1H-cyclopenta[a]phenanthren-3-yl acetate], the inhibition at 0.001 µM under setting [2] lay within 10 to 50%.
`CCc1ccncc1C1=CC=C2C3CCC4CC(=O)NCC[C@]4(C)C3CC[C@]12C` (stereo partly drawn) [Compound 467, (5aS,7aS)-8-(4-ethylpyridin-3-yl)-5a,7a-dimethyl-3,4,5,5a,5b,6,7,7a,10b,11,12,12a-dodecahydrocyclopenta[5,6]naphtho[1,2-d]azepin-2(1H)-one]: the inhibition at 0.001 µM under setting [2] was in the range of 10 to 50%.
Consider `CCc1ccncc1C1=CC=C2C3CCC4CNC(=O)CC[C@]4(C)C3CC[C@]12C` (stereo partly drawn) [Compound 468, (5aR,7aS)-8-(4-ethylpyridin-3-yl)-5a,7a-dimethyl-1,2,5,5a,5b,6,7,7a,10b,11,12,12a-dodecahydrocyclopenta[5,6]naphtho[2,1-c]azepin-3(4H)-one], for which, under setting [2], the inhibition at 0.001 µM is 10 to 50%.
Same read-out and setting: for `CCc1ccncc1C1=CC[C@H]2[C@@H]3CC[C@H]4CC(=O)NCC[C@]4(C)[C@H]3CC[C@]12C` [Compound 469, (5aS,5bS,7aS,10aS,10bR,12aS)-8-(4-ethylpyridin-3-yl)-5a,7a-dimethyl-3,4,5,5a,5b,6,7,7a,10,10a,10b,11,12,12a-tetradecahydrocyclopenta[5,6]naphtho[1,2-d]azepin-2(1H)-one] the value was 10 to 50%; for `CCc1ccncc1C1=CC[C@H]2[C@@H]3CC[C@H]4CNC(=O)CC[C@]4(C)[C@H]3CC[C@]12C` [Compound 470, (5aR,5bS,7aS,10aS,10bR,12aR)-8-(4-ethylpyridin-3-yl)-5a,7a-dimethyl-1,2,5,5a,5b,6,7,7a,10,10a,10b,11,12,12a-tetradecahydrocyclopenta[5,6]naphtho[2,1-c]azepin-3(4H)-one], under 10%.
Consider `C[C@]12CC[C@H](O)CC1CCC1C2CC[C@]2(C)C(c3ccc[n+]([O-])c3)CCC12` (stereo partly drawn) [Compound 472, 3-((3S,10S,13S)-3-hydroxy-10,13-dimethylhexadecahydro-1H-cyclopenta[a]phenanthren-17-yl)pyridine 1-oxide], for which the inhibition at 0.001 µM under setting [2] fell in the range of 10 to 50%.
